Experimental data from the NIST ThermoML archive (doi:10.1021/je049777o).

Assay: xn = mol fraction of the nth substance listed
Details: 101.3 kPa, Liquid

COC(=O)OC [dimethyl carbonate] + CCCCCC
Details	mass density [kg/m3]	viscosity [mPa·s]
293.15 K, x1 = 0.0961	685.68	0.3032
293.15 K, x1 = 0.193	712.34	0.3094
293.15 K, x1 = 0.2909	741.99	0.3213
293.15 K, x1 = 0.3894	774.82	0.341
293.15 K, x1 = 0.489	811.38	0.3647
293.15 K, x1 = 0.5893	851.98	0.3939
293.15 K, x1 = 0.6906	897.34	0.427
293.15 K, x1 = 0.7928	948.58	0.4715
293.15 K, x1 = 0.896	1006.55	0.542
293.15 K, x1 = 1	1069.54	0.6173
298.15 K, x1 = 0.0961	680.92	0.2901
298.15 K, x1 = 0.193	707.38	0.294
298.15 K, x1 = 0.2909	736.8	0.306
298.15 K, x1 = 0.3894	769.42	0.3232
298.15 K, x1 = 0.489	805.8	0.3449
298.15 K, x1 = 0.5893	846.19	0.3709
298.15 K, x1 = 0.6906	891.45	0.4024
298.15 K, x1 = 0.7928	942.39	0.4472
298.15 K, x1 = 0.896	1000.17	0.5031
298.15 K, x1 = 1	1062.95	0.5734
303.15 K, x1 = 0.0961	676.14	0.279
303.15 K, x1 = 0.193	702.37	0.2817
303.15 K, x1 = 0.2909	731.62	0.2923
303.15 K, x1 = 0.3894	764.04	0.3061
303.15 K, x1 = 0.489	800.21	0.3252
303.15 K, x1 = 0.5893	840.41	0.3502
303.15 K, x1 = 0.6906	885.48	0.3808
303.15 K, x1 = 0.7928	936.19	0.4221
303.15 K, x1 = 0.896	993.78	0.4748
303.15 K, x1 = 1	1056.35	0.5403
313.15 K, x1 = 0.0961	666.41	0.2513
313.15 K, x1 = 0.193	692.21	0.2555
313.15 K, x1 = 0.2909	721.04	0.2645
313.15 K, x1 = 0.3894	753.05	0.277
313.15 K, x1 = 0.489	788.82	0.2938
313.15 K, x1 = 0.5893	828.62	0.3163
313.15 K, x1 = 0.6906	873.34	0.3417
313.15 K, x1 = 0.7928	923.65	0.3763
313.15 K, x1 = 0.896	980.84	0.4229
313.15 K, x1 = 1	1043.01	0.4807
323.15 K, x1 = 0.0961	656.55	0.2333
323.15 K, x1 = 0.193	681.9	0.2344
323.15 K, x1 = 0.2909	710.27	0.2423
323.15 K, x1 = 0.3894	741.92	0.2536
323.15 K, x1 = 0.489	777.28	0.2681
323.15 K, x1 = 0.5893	816.69	0.288
323.15 K, x1 = 0.6906	861.07	0.3101
323.15 K, x1 = 0.7928	910.98	0.3404
323.15 K, x1 = 0.896	967.8	0.3781
323.15 K, x1 = 1	1029.59	0.427
333.15 K, x1 = 0.0961	646.44	0.213
333.15 K, x1 = 0.193	671.36	0.2167
333.15 K, x1 = 0.2909	699.25	0.2239
333.15 K, x1 = 0.3894	730.55	0.234
333.15 K, x1 = 0.489	765.5	0.2466
333.15 K, x1 = 0.5893	804.52	0.2639
333.15 K, x1 = 0.6906	848.53	0.2842
333.15 K, x1 = 0.7928	898.13	0.3117
333.15 K, x1 = 0.896	954.54	0.3447
333.15 K, x1 = 1	1016	0.3893

COC(=O)OC [dimethyl carbonate] + CCCCCCC
Details	mass density [kg/m3]	viscosity [mPa·s]
293.15 K, x1 = 0.1099	709.87	0.3932
293.15 K, x1 = 0.2176	735.33	0.3924
293.15 K, x1 = 0.3229	763.59	0.4001
293.15 K, x1 = 0.4259	794.8	0.4139
293.15 K, x1 = 0.5266	829.38	0.4321
293.15 K, x1 = 0.6252	867.51	0.4541
293.15 K, x1 = 0.7218	910.1	0.4774
293.15 K, x1 = 0.8165	957.71	0.5078
293.15 K, x1 = 0.9092	1011.41	0.5511
293.15 K, x1 = 1	1069.54	0.6173
298.15 K, x1 = 0.1099	705.39	0.3737
298.15 K, x1 = 0.2176	730.61	0.3723
298.15 K, x1 = 0.3229	758.68	0.3796
298.15 K, x1 = 0.4259	789.63	0.3911
298.15 K, x1 = 0.5266	823.98	0.4095
298.15 K, x1 = 0.6252	861.86	0.4261
298.15 K, x1 = 0.7218	904.23	0.45
298.15 K, x1 = 0.8165	951.63	0.4779
298.15 K, x1 = 0.9092	1005.04	0.5169
298.15 K, x1 = 1	1062.95	0.5734
303.15 K, x1 = 0.1099	700.93	0.3559
303.15 K, x1 = 0.2176	725.89	0.353
303.15 K, x1 = 0.3229	753.73	0.3585
303.15 K, x1 = 0.4259	784.46	0.3719
303.15 K, x1 = 0.5266	818.56	0.3855
303.15 K, x1 = 0.6252	856.24	0.4015
303.15 K, x1 = 0.7218	898.37	0.423
303.15 K, x1 = 0.8165	945.53	0.4491
303.15 K, x1 = 0.9092	998.7	0.4793
303.15 K, x1 = 1	1056.35	0.5403
313.15 K, x1 = 0.1099	691.78	0.32
313.15 K, x1 = 0.2176	716.32	0.3195
313.15 K, x1 = 0.3229	743.68	0.3248
313.15 K, x1 = 0.4259	773.95	0.3316
313.15 K, x1 = 0.5266	807.58	0.3435
313.15 K, x1 = 0.6252	844.82	0.3588
313.15 K, x1 = 0.7218	886.49	0.3777
313.15 K, x1 = 0.8165	933.18	0.402
313.15 K, x1 = 0.9092	985.81	0.4335
313.15 K, x1 = 1	1043.01	0.4807
323.15 K, x1 = 0.1099	682.57	0.2905
323.15 K, x1 = 0.2176	706.62	0.292
323.15 K, x1 = 0.3229	733.52	0.2932
323.15 K, x1 = 0.4259	763.34	0.2997
323.15 K, x1 = 0.5266	796.47	0.3118
323.15 K, x1 = 0.6252	833.28	0.3251
323.15 K, x1 = 0.7218	874.5	0.3403
323.15 K, x1 = 0.8165	920.24	0.3615
323.15 K, x1 = 0.9092	972.84	0.3906
323.15 K, x1 = 1	1029.59	0.427
333.15 K, x1 = 0.1099	673.2	0.2666
333.15 K, x1 = 0.2176	696.76	0.2648
333.15 K, x1 = 0.3229	723.19	0.267
333.15 K, x1 = 0.4259	752.53	0.273
333.15 K, x1 = 0.5266	785.19	0.2828
333.15 K, x1 = 0.6252	821.51	0.2946
333.15 K, x1 = 0.7218	862.31	0.3099
333.15 K, x1 = 0.8165	908.07	0.3291
333.15 K, x1 = 0.9092	959.74	0.3543
333.15 K, x1 = 1	1016	0.3893
343.15 K, x1 = 0.1099	663.69	0.2437
343.15 K, x1 = 0.2176	686.83	0.2429
343.15 K, x1 = 0.3229	712.79	0.2462
343.15 K, x1 = 0.4259	741.63	0.2512
343.15 K, x1 = 0.5266	773.79	0.2603
343.15 K, x1 = 0.6252	809.67	0.2725
343.15 K, x1 = 0.7218	850.05	0.2851
343.15 K, x1 = 0.8165	894.95	0.3015
343.15 K, x1 = 0.9092	946.54	0.3252
343.15 K, x1 = 1	1002.32	0.3527
